This note sets out measurements from ChEMBL document CHEMBL1138653, “Screening of antimicrobial activity of diarylamines in the 2,3,5-trimethylbenzo[b]thiophene series: a structure-activity evaluation study” (2004).

Values after ≈ are worked out from the molar mass of the structure shown. Active and inactive are the calls of the source. No cut-off for these calls is given here.

A word on the MIC: it is the least concentration at which growth counts as inhibited.

Experiment [1] concerns Escherichia coli. In words: Minimal inhibitory concentration against Escherichia coli (CECT 101) strain; Not active. The experiment is classed as functional, organism-based.
Experiment [2] concerns Pseudomonas aeruginosa. Nature of the experiment: Minimal inhibitory concentration against Pseudomonas aeruginosa (CECT 108) strain; Not active. It counts as functional, organism-based.
Experiment [3] concerns Bacillus cereus. Nature of the experiment: Minimal inhibitory concentration against Bacillus cereus (CECT 148) strain; Not active. It counts as functional, organism-based.
For experiment [4], the system named is Bacillus subtilis. In words: Minimal inhibitory concentration against Bacillus subtilis (CECT 498) strain; Not active. It counts as functional, organism-based.
In experiment [5] the test system is Candida albicans. Nature of the experiment: Minimal inhibitory concentration against Candida albicans (CECT 1394) strain; Not active. The experiment is classed as functional, organism-based.
In experiment [6] the test system is Escherichia coli. In words: Minimal inhibitory concentration against Escherichia coli. It counts as functional.
The test system of experiment [7] is Escherichia coli. Nature of the experiment: Diameter of the inhibition zone of Escherichia coli upon administration of compound. It counts as functional.
The subject of experiment [8] is Pseudomonas aeruginosa. In words: inhibition of Pseudomonas aeruginosa was measured by zone diameter. The experiment is classed as functional.
For experiment [9], the system named is Bacillus cereus. Nature of the experiment: inhibition of Bacillus cereus was measured by zone diameter. The experiment is classed as functional.
In experiment [10] the test system is Bacillus subtilis. Nature of the experiment: inhibition of Bacillus subtilis was measured by zone diameter. The experiment is classed as functional.
Experiment [11] has as its system Bacillus subtilis. Nature of the experiment: Minimal inhibitory concentration against Bacillus subtilis. The experiment is classed as functional.
The test system of experiment [12] is Pseudomonas aeruginosa. In words: Minimal inhibitory concentration against Pseudomonas aeruginosa. The experiment is classed as functional.
The subject of experiment [13] is Bacillus cereus. In words: Minimal inhibitory concentration against Bacillus cereus. It counts as functional.
In experiment [14] the test system is Escherichia coli. Nature of the experiment: Minimal inhibitory concentration against Escherichia coli; Not active. It counts as functional, organism-based.
For experiment [15], the system named is Candida albicans. Nature of the experiment: Minimal inhibitory concentration against Candida albicans; Not active. It counts as functional, organism-based.
Experiment [16] has as its system Pseudomonas aeruginosa. Nature of the experiment: Minimal inhibitory concentration against Pseudomonas aeruginosa; Not active. The experiment is classed as functional, organism-based.
For experiment [17], the system named is Candida albicans. Nature of the experiment: inhibition of Candida albicans was measured by zone diameter. It counts as functional.
For experiment [18], the system named is Candida albicans. Nature of the experiment: Minimal inhibitory concentration against Candida albicans. The experiment is classed as functional.
In experiment [19] the test system is Escherichia coli. Nature of the experiment: inhibition of Escherichia coli was measured by zone diameter. It counts as functional.

For `Cc1ccc2sc(C)c(C)c2c1`, the MIC entry in the experiment with Escherichia coli [1], in the experiment on Pseudomonas aeruginosa [2], in the experiment on Bacillus cereus [3], in the experiment on Bacillus subtilis [4] and with Candida albicans [5] was “inactive” each time.

Regarding `Cc1cc2c(C)c(C)sc2cc1Nc1ccccc1`, the MIC against Escherichia coli [6], against Bacillus subtilis [11], in the experiment with Pseudomonas aeruginosa [12] and in the experiment with Bacillus cereus [13] was 200 µg/mL (≈ 748 µM) in each case. Besides, the Inhibition in the experiment with Escherichia coli [7] is recorded as 4 mm; in the experiment on Pseudomonas aeruginosa [8], 16 mm; with Bacillus cereus [9], 18 mm; in the experiment with Bacillus subtilis [10], 8 mm.

For the compound `Cc1cc2c(C)c(C)sc2cc1Br`, the Inhibition in the experiment with Bacillus cereus [9] is given as 12 mm; in the experiment with Bacillus subtilis [10], 18 mm. For the same compound, the MIC result in the experiment with Escherichia coli [14], in the experiment on Candida albicans [15] and in the experiment with Pseudomonas aeruginosa [16] was “inactive” each time. The MIC against Bacillus subtilis [11] worked out at 500 µg/mL (≈ 1960 µM); in the experiment with Bacillus cereus [13], 1000 µg/mL (≈ 3920 µM).

Turning to `Cc1cc2c(C)c(C)sc2cc1N`, the Inhibition is reported as 13 mm with Candida albicans [17], 10 mm in the experiment with Bacillus cereus [9] and 17 mm in the experiment with Bacillus subtilis [10]. The MIC entry with Escherichia coli [14] and with Pseudomonas aeruginosa [16] was “inactive” throughout. Besides, the MIC with Bacillus subtilis [11] amounted to 500 µg/mL (≈ 2610 µM); in the experiment with Bacillus cereus [13], 500 µg/mL (≈ 2610 µM); with Candida albicans [18] it was 1000 µg/mL (≈ 5230 µM).

Take `Cc1cc2c(C)c(C)sc2cc1Nc1ccc(F)cc1`: the Inhibition in the experiment with Bacillus cereus [9] was found to be 12 mm; in the experiment on Bacillus subtilis [10] it was 10 mm. Besides, the MIC entry with Escherichia coli [14] and in the experiment with Pseudomonas aeruginosa [16] was “inactive” throughout. Also, the MIC with Bacillus subtilis [11] and against Bacillus cereus [13] was 200 µg/mL (≈ 701 µM) throughout.

Consider `COc1ccc(Nc2cc3sc(C)c(C)c3cc2C)cc1OC`, for which the Inhibition is 8 mm in the experiment on Candida albicans [17], 10 mm with Pseudomonas aeruginosa [8], 24 mm with Bacillus cereus [9] and 10 mm in the experiment on Bacillus subtilis [10]. For the same compound, the MIC entry in the experiment on Escherichia coli [14] was “inactive”. For the same compound, the MIC was 200 µg/mL (≈ 611 µM) in the experiment with Bacillus subtilis [11], 1000 µg/mL (≈ 3050 µM) against Pseudomonas aeruginosa [12], 200 µg/mL (≈ 611 µM) in the experiment on Bacillus cereus [13] and 25 µg/mL (≈ 76.3 µM) in the experiment on Candida albicans [18].

Turning to `COc1ccc(Nc2cc3sc(C)c(C)c3cc2C)cc1`, the Inhibition in the experiment with Candida albicans [17] is reported as 6 mm; with Escherichia coli [7], 4 mm; in the experiment on Pseudomonas aeruginosa [8], 8 mm; in the experiment with Bacillus cereus [9] it was 4 mm; with Bacillus subtilis [10] it was 19 mm. For the same compound, the MIC was 1000 µg/mL (≈ 3360 µM) against Escherichia coli [6]; 50 µg/mL (≈ 168 µM) with Bacillus subtilis [11]; 1000 µg/mL (≈ 3360 µM) in the experiment with Pseudomonas aeruginosa [12]; 100 µg/mL (≈ 336 µM) in the experiment on Bacillus cereus [13]; 12.5 µg/mL (≈ 42 µM) against Candida albicans [18].

For `Cc1cc2c(C)c(C)sc2cc1Nc1ccccc1F`, the Inhibition with Bacillus cereus [9] came to 9 mm; with Bacillus subtilis [10] it was 8 mm. Besides, the MIC entry in the experiment on Escherichia coli [14] was “inactive”. Further, the minimum inhibitory concentration (MIC) was determined as 50 µg/mL (≈ 175 µM) in the experiment on Bacillus subtilis [11] and 200 µg/mL (≈ 701 µM) in the experiment on Bacillus cereus [13].

Take `O=C(N[C@H](CO)[C@H](O)c1ccc([N+](=O)[O-])cc1)C(Cl)Cl` [CHLORAMPHENICOL]: the Inhibition in the experiment with Bacillus cereus [9] came to 8 mm. In the experiment with Bacillus cereus [13], this compound yielded an MIC of 3.13 µg/mL (≈ 9.69 µM).

Regarding `CC1(C)S[C@@H]2[C@H](NC(=O)[C@H](N)c3ccccc3)C(=O)N2[C@H]1C(=O)O` [AMPICILLIN], the Inhibition in the experiment on Escherichia coli [19] worked out at 15 mm; with Pseudomonas aeruginosa [8], 12 mm; in the experiment on Bacillus cereus [9] it was 13 mm; in the experiment on Bacillus subtilis [10] it was 10 mm. The MIC was 6.25 µg/mL (≈ 17.9 µM) in the experiment on Escherichia coli [6], 12.5 µg/mL (≈ 35.8 µM) with Bacillus subtilis [11], 6.25 µg/mL (≈ 17.9 µM) with Pseudomonas aeruginosa [12] and 3.13 µg/mL (≈ 8.96 µM) with Bacillus cereus [13].
